Reference: PubChem BioAssay AID1963421 (Molecular Pharmacology Branch, DTP, NCI, 2024)

Tested on: 519858-162-T-J1-PDC complex spheroid growth, % test/control
Experiment: Anticancer human tumor 519858-162-T-J1-PDC patient-derived colon adenocarcinoma cell line growth inhibition [Asc]
Conditions: for IC50: curve of first compound; for viability, T/C: stronger effect = lower value
Method in brief: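 Complex spheroids combining tumor cells with HUVEC endothelial cells and human MSCs, at 37 degrees C, 5% CO2; agents tested alone or combined, half-log dilutions from at or near clinical Cmax, or 10 microM if Cmax unknown.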
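Also: seven day drug exposure begun three days after spheroid seeding.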
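For viability, T/C in this document: 100% = DMSO vehicle wells and lower values mean less viable spheroid.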

## C#Cc1c(F)ccc2cc(O)cc(-c3ncc4c(N5CC6CCC(C5)N6)nc(OCC56CCCN5CC(F)C6)nc4c3F)c12 (centres undefined) + Cc1c(S(C)(=O)=O)c(-c2cc(F)cc(N3CCN(c4ccc(NS(=O)(=O)c5ccc(NC(CCN6CCC(C(=O)OCCCP(=O)(O)O)CC6)CSc6ccccc6)c(S(=O)(=O)C(F)(F)F)c5)cc4)CC3)c2)c(-c2ccc(Cl)cc2)n1C(C)C
Second compound 0.0316 µM
  IC50: > 10 µM
Second compound 0.1 µM
  IC50: > 10 µM
Second compound 0.316 µM
  IC50: > 10 µM
Second compound 1 µM
  IC50: > 10 µM
Second compound 3.16 µM
  IC50: > 10 µM
Second compound 10 µM
  IC50: > 10 µM
Second compound 0.0316 µM, first compound 0.0316 µM
  viability, T/C: 117%
Second compound 0.0316 µM, first compound 0.1 µM
  viability, T/C: 88.2%
Second compound 0.0316 µM, first compound 0.316 µM
  viability, T/C: 89.7%
Second compound 0.0316 µM, first compound 1 µM
  viability, T/C: 89.5%
Second compound 0.0316 µM, first compound 3.16 µM
  viability, T/C: 81.6%
Second compound 0.0316 µM, first compound 10 µM
  viability, T/C: 83.9%
Second compound 0.1 µM, first compound 0.0316 µM
  viability, T/C: 60.5%
Second compound 0.1 µM, first compound 0.1 µM
  viability, T/C: 109%
Second compound 0.1 µM, first compound 0.316 µM
  viability, T/C: 105%
Second compound 0.1 µM, first compound 1 µM
  viability, T/C: 99.7%
Second compound 0.1 µM, first compound 3.16 µM
  viability, T/C: 87.1%
Second compound 0.1 µM, first compound 10 µM
  viability, T/C: 89.6%
Second compound 0.316 µM, first compound 0.0316 µM
  viability, T/C: 88.2%
Second compound 0.316 µM, first compound 0.1 µM
  viability, T/C: 88.3%
Second compound 0.316 µM, first compound 0.316 µM
  viability, T/C: 82.6%
Second compound 0.316 µM, first compound 1 µM
  viability, T/C: 77.3%
Second compound 0.316 µM, first compound 3.16 µM
  viability, T/C: 64.6%
Second compound 0.316 µM, first compound 10 µM
  viability, T/C: 56.9%
Second compound 1 µM, first compound 0.0316 µM
  viability, T/C: 84.4%
Second compound 1 µM, first compound 0.1 µM
  viability, T/C: 75.1%
Second compound 1 µM, first compound 0.316 µM
  viability, T/C: 84%
Second compound 1 µM, first compound 1 µM
  viability, T/C: 58.2%
Second compound 1 µM, first compound 3.16 µM
  viability, T/C: 78.7%
Second compound 1 µM, first compound 10 µM
  viability, T/C: 82.7%
Second compound 3.16 µM, first compound 0.0316 µM
  viability, T/C: 70.6%
Second compound 3.16 µM, first compound 0.1 µM
  viability, T/C: 79.9%
Second compound 3.16 µM, first compound 0.316 µM
  viability, T/C: 58.9%
Second compound 3.16 µM, first compound 1 µM
  viability, T/C: 57.3%
Second compound 3.16 µM, first compound 3.16 µM
  viability, T/C: 95.8%
Second compound 3.16 µM, first compound 10 µM
  viability, T/C: 67.8%
Second compound 10 µM, first compound 0.0316 µM
  viability, T/C: 62.9%
Second compound 10 µM, first compound 0.1 µM
  viability, T/C: 66.2%
Second compound 10 µM, first compound 0.316 µM
  viability, T/C: 65.9%
Second compound 10 µM, first compound 1 µM
  viability, T/C: 56.6%
Second compound 10 µM, first compound 3.16 µM
  viability, T/C: 60.1%
Second compound 10 µM, first compound 10 µM
  viability, T/C: 77.5%

## Cc1nc(N2CCC3(CC2)COC(C)C3N)c(CO)nc1Sc1ccnc(N)c1Cl (centres undefined) + Cc1c(S(C)(=O)=O)c(-c2cc(F)cc(N3CCN(c4ccc(NS(=O)(=O)c5ccc(NC(CCN6CCC(C(=O)OCCCP(=O)(O)O)CC6)CSc6ccccc6)c(S(=O)(=O)C(F)(F)F)c5)cc4)CC3)c2)c(-c2ccc(Cl)cc2)n1C(C)C
Second compound 0.0316 µM
  IC50: 2.1 µM
Second compound 0.1 µM
  IC50: 0.823 µM
Second compound 0.316 µM
  IC50: > 3 µM
Second compound 1 µM
  IC50: > 3 µM
Second compound 3.16 µM
  IC50: > 3 µM
Second compound 10 µM
  IC50: > 3 µM
Second compound 0.0316 µM, first compound 0.00949 µM
  viability, T/C: 90.4%
Second compound 0.0316 µM, first compound 0.03 µM
  viability, T/C: 106%
Second compound 0.0316 µM, first compound 0.0949 µM
  viability, T/C: 47.1%
Second compound 0.0316 µM, first compound 0.3 µM
  viability, T/C: 73.5%
Second compound 0.0316 µM, first compound 0.949 µM
  viability, T/C: 68%
Second compound 0.0316 µM, first compound 3 µM
  viability, T/C: 39.9%
Second compound 0.1 µM, first compound 0.00949 µM
  viability, T/C: 109%
Second compound 0.1 µM, first compound 0.03 µM
  viability, T/C: 105%
Second compound 0.1 µM, first compound 0.0949 µM
  viability, T/C: 78.5%
Second compound 0.1 µM, first compound 0.3 µM
  viability, T/C: 63.9%
Second compound 0.1 µM, first compound 0.949 µM
  viability, T/C: 47.3%
Second compound 0.1 µM, first compound 3 µM
  viability, T/C: 43.6%
Second compound 0.316 µM, first compound 0.00949 µM
  viability, T/C: 81.5%
Second compound 0.316 µM, first compound 0.03 µM
  viability, T/C: 92.9%
Second compound 0.316 µM, first compound 0.0949 µM
  viability, T/C: 68%
Second compound 0.316 µM, first compound 0.3 µM
  viability, T/C: 101%
Second compound 0.316 µM, first compound 0.949 µM
  viability, T/C: 68.4%
Second compound 0.316 µM, first compound 3 µM
  viability, T/C: 50.5%
Second compound 1 µM, first compound 0.00949 µM
  viability, T/C: 92.5%
Second compound 1 µM, first compound 0.03 µM
  viability, T/C: 68.5%
Second compound 1 µM, first compound 0.0949 µM
  viability, T/C: 52.5%
Second compound 1 µM, first compound 0.3 µM
  viability, T/C: 75.5%
Second compound 1 µM, first compound 0.949 µM
  viability, T/C: 43.2%
Second compound 1 µM, first compound 3 µM
  viability, T/C: 53.7%
Second compound 3.16 µM, first compound 0.00949 µM
  viability, T/C: 71.4%
Second compound 3.16 µM, first compound 0.03 µM
  viability, T/C: 95.6%
Second compound 3.16 µM, first compound 0.0949 µM
  viability, T/C: 67.6%
Second compound 3.16 µM, first compound 0.3 µM
  viability, T/C: 62.8%
Second compound 3.16 µM, first compound 0.949 µM
  viability, T/C: 74.8%
Second compound 3.16 µM, first compound 3 µM
  viability, T/C: 56.2%
Second compound 10 µM, first compound 0.00949 µM
  viability, T/C: 68.9%
Second compound 10 µM, first compound 0.03 µM
  viability, T/C: 86.4%
Second compound 10 µM, first compound 0.0949 µM
  viability, T/C: 61.1%
Second compound 10 µM, first compound 0.3 µM
  viability, T/C: 59.8%
Second compound 10 µM, first compound 0.949 µM
  viability, T/C: 64%
Second compound 10 µM, first compound 3 µM
  viability, T/C: 76.5%
